In ChEMBL document CHEMBL5149996, “Structure-Based Optimization and Discovery of M3258, a Specific Inhibitor of the Immunoproteasome Subunit LMP7 (β5i)” (J Med Chem, 2021):

Tests used:
[1] = molecular target: T1, Proteasome subunit beta type-8 (Homo sapiens, UniProt P28062); experiment: Inhibition of 20S immunoproteasome beta-5i subunit in human PBMC using Ac-ANW-luciferin substrate preincubated for 2 hrs followed by substrate addition and measured after 30 mins by luminometric analysis; type: cell-based
T1 sequence (P28062 whole entry): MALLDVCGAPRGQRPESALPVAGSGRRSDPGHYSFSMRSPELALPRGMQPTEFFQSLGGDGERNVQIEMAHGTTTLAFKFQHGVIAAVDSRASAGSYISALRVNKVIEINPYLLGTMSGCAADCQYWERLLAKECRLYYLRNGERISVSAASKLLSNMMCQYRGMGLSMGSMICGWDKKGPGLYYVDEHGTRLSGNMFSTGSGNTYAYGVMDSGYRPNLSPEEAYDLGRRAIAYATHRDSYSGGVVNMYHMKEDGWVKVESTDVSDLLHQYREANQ

[2] = molecular target: T1, Proteasome subunit beta type-8; experiment: Inhibition of human 20S immunoproteasome beta-5i subunit using Suc-LLVY-AMC as substrate preincubated for 2 hrs followed by substrate addition and measured after 1 hr by fluorescence intensity assay
[3] = molecular target: T2, Proteasome Macropain subunit MB1 (Homo sapiens, UniProt P28074); experiment: Inhibition of human 20S proteasome beta5 subunit using Suc-LLVY-AMC as substrate preincubated for 2 hrs followed by substrate addition and measured after 1 hr by fluorescence intensity assay
T2 sequence (P28074 whole entry): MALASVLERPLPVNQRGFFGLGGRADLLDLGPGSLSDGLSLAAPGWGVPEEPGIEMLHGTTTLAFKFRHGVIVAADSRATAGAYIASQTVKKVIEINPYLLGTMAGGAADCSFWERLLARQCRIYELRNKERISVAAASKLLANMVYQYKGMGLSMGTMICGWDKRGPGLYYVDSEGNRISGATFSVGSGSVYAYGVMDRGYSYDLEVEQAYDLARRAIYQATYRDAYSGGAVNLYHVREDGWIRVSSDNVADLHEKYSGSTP

Homo sapiens [4] = organism: Homo sapiens; experiment: Selectivity ratio of IC50 for inhibition of 20S proteasome beta5 subunit in human A549 cells to IC50 for inhibition of 20S immunoproteasome beta-5i subunit in human PBMC; type: cell-based
[5] = molecular target: T2, Proteasome Macropain subunit MB1; experiment: Inhibition of 20S proteasome beta5 subunit in human A549 cells using Suc-LLVY-luciferin substrate preincubated for 2 hrs followed by substrate addition and measured after 30 mins by luminometric analysis; type: cell-based
Homo sapiens [6] = organism: Homo sapiens; experiment: Selectivity ratio of IC50 for inhibition of human 20S proteasome beta5 subunit to IC50 for inhibition of human 20S immunoproteasome beta-5i subunit
[7] = Intrinsic clearance in mouse liver microsomes measured per mg protein; type: ADME, Microsome; settings: read-out: CLH
[8] = Lipophilicity, log P of the compound; type: physicochemical; settings: octanol/water

Compound | IC50 [1] [nM] | IC50 [2] [nM] | IC50 [3] [nM] | Ratio IC50 (Homo sapiens [4]) | IC50 [5] [nM] | Ratio IC50 (Homo sapiens [6]) | microsomal CLint [7] [µL/min/mg] | logP [8]
O=C(Cn1cccn1)N[C@@H](Cc1coc2ccccc12)B(O)O | 31 | 3.7 | 770 | 29 | 894 | 212 | – | –
Cc1ccc(C[C@@H](NC(=O)Cc2ccccc2)B(O)O)cc1C | 1410 | 1200 | > 30000 | 4.2 | 5900 | > 25 | – | –
O=C(Cc1ccccc1)N[C@@H](C[C@H]1COc2c(Cl)cccc21)B(O)O | 9670 | 610 | > 30000 | – | > 30000 | > 49 | – | –
O=C(Cc1ccccc1)N[C@@H](Cc1coc2c(F)cccc12)B(O)O | 22.8 | 3.1 | 530 | 34 | 785 | 168 | – | –
O=C(Cc1cnccn1)N[C@@H](Cc1coc2ccccc12)B(O)O | 18 | 1.9 | 410 | 18 | 328 | 212 | – | –
O=C(N[C@@H](Cc1coc2ccccc12)B(O)O)[C@H]1C[C@H]2CC[C@@H]1O2 | – | 140 | > 30000 | – | – | > 210 | – | –
CC(C)C[C@H](NC(=O)Cc1ccccc1)B(O)O | 3300 | 1000 | 15000 | 2.1 | 7000 | 15 | – | –
O=C(Cc1cccnc1)N[C@@H](Cc1coc2ccccc12)B(O)O | 24.7 | 2.3 | 540 | 26 | 646 | 232 | – | –
Cc1cccc2c(C[C@H](NC(=O)Cc3ccccc3)B(O)O)coc12 | 29 | 4.5 | 1200 | 71 | 2100 | 276 | – | –
Cc1c(Cl)ccc2c(C[C@H](NC(=O)Cc3ccccc3)B(O)O)coc12 | 164 | 6.4 | 1700 | 44 | 7320 | 272 | – | –
Cc1cccc2c1OC[C@H]2C[C@H](NC(=O)Cc1ccccc1)B(O)O | 53 | 3.1 | 7200 | 262 | 14000 | 2330 | – | –
O=C(N[C@@H](Cc1coc2ccccc12)B(O)O)[C@H]1CCOC1 | 55 | 28 | 5000 | 54 | 3000 | 175 | 16 | 2.1
COc1cccc2c(C[C@H](NC(=O)Cc3ccccc3)B(O)O)coc12 | 8.9 | 2.2 | 140 | 24 | 222 | 63 | – | –
N#Cc1ccccc1CC(=O)N[C@@H](Cc1coc2ccccc12)B(O)O | 42 | 5.2 | 1700 | 52 | 2220 | 334 | – | –
COCCC(=O)N[C@@H](Cc1coc2ccccc12)B(O)O | 10.6 | 1.9 | 400 | 23 | 241 | 205 | – | –
O=C(Cc1ccccc1)N[C@@H](Cc1cc2ccccc2o1)B(O)O | 824 | 29 | 5000 | 12 | 10100 | 172 | – | –
N#Cc1ccccc1CC(=O)N[C@@H](C[C@@H]1COc2c(Cl)cccc21)B(O)O | 51 | 2.9 | 7400 | 406 | 20900 | 2570 | – | –
